# Where two headings read alike, the source gives them in different places.
# Experiments:
# [1] = target: T1, human NPR1 (Homo sapiens, UniProt P16066); experiment: Cellular cGMP production assay, human NPR1 expressing CHO-K1 cells (CisBio HTRF); type: cell-based; conditions: for AC50: cGMP production, 30 min at 37° C., 12-point dose-response from 30 μM; for Human NPR1 Amax (% of ANP): maximum cGMP production as percentage of the maximum cGMP produced with ANP
# T1 construct: host or cells: CHO-K1
# T1 sequence (P16066 33-1061): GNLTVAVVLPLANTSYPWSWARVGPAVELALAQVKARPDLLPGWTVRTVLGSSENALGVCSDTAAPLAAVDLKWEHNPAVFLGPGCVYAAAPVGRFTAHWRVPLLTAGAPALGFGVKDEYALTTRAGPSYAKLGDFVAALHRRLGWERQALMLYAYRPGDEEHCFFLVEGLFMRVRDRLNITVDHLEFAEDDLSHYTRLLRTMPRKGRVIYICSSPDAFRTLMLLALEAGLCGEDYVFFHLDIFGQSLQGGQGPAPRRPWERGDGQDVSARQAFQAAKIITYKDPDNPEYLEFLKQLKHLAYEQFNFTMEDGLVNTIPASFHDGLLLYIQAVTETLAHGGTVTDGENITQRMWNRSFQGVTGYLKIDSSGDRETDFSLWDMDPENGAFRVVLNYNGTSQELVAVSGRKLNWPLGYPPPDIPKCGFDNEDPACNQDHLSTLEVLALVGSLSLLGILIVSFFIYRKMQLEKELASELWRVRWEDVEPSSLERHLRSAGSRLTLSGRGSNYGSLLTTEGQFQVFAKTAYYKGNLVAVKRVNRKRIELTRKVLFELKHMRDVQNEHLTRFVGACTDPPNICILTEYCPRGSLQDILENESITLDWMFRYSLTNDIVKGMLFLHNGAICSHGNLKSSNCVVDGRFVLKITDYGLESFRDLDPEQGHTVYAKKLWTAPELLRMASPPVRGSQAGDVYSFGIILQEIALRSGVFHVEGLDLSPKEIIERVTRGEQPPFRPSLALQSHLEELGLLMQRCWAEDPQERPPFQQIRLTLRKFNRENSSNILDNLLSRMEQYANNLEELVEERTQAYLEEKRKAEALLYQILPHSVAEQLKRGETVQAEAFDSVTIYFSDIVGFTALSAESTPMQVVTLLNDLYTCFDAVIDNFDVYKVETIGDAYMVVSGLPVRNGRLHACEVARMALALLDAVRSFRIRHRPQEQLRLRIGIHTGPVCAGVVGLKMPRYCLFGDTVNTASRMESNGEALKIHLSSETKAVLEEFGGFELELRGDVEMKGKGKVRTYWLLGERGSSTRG
# Procedure, shortened: (§1)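 Step 1: add buffer (PBS, 0.1% BSA, 1 mM IBMX) and compounds, 3-fold series from 30 μM top. Step 2: incubate 30 min, 37 °C. Step 3: lyse; HTRF reagents 1 h at RT.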
# [2] = target: monkey NPR1 (Macaca fascicularis, UniProt A0A7N9DBT9); experiment: Cellular cGMP production assay, monkey NPR1 expressing CHO-K1 cells (CisBio HTRF); type: cell-based; conditions: for Monkey NPR1 Amax (% of ANP): maximum cGMP production as percentage of the maximum cGMP produced with ANP
# monkey NPR1, sequence (A0A7N9DBT9 entry or part of it): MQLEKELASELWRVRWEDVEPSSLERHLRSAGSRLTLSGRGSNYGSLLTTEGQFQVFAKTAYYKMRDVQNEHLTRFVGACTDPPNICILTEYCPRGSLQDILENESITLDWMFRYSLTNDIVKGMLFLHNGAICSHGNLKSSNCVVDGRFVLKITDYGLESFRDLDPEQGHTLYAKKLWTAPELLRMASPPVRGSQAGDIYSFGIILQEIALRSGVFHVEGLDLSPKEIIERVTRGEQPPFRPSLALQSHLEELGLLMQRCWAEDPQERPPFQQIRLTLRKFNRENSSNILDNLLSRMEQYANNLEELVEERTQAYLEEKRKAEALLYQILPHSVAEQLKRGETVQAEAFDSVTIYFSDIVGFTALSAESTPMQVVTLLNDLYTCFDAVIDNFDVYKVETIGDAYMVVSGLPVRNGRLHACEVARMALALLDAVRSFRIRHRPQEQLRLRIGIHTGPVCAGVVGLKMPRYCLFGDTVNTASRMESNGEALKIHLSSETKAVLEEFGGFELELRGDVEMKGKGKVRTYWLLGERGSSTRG
# Procedure, shortened: as §1
# [3] = cGMP production, monkey NPR1 CHO-K1 cells, 30 min at 37° C., 12-point dose-response from 30 μM, read-out: Monkey NPR1 AC50
Structure (SMILES),AC50 [1] [µM],Human NPR1 Amax (% of ANP) [1],"AC50 [2, 3] [µM]",Monkey NPR1 Amax (% of ANP) ([2]; monkey NPR1 CHO-K1 cells),AC50 [2] [µM]
"CC[C@H]([C@H]1CC[C@H](C(=O)O)CC1)N(C)c1nc2c(c(N[C@@H](CN3CCC[C@H](C)C3)c3cnn(C)c3)n1)C[C@@H](c1ccccc1)CC2 [Compound 101, (1R,4r)-4-((R)-1-(methyl((S)-4-(((R)-1-(1-methyl-1H-pyrazol-4-yl)-2-((S)-3-methylpiperidin-1-yl)ethyl)amino)-6-phenyl-5,6,7,8-tetrahydroquinazolin-2-yl)amino)propyl)cyclohexane-1-carboxylic acid]",0.377,93.777 % of ANP,0.335,101.476 % of ANP,
"CC[C@@H](Nc1nc2c(c(N[C@@H](CN3CCCCCC3)c3cnn(C)c3)n1)C[C@H](c1cccc(F)c1)CC2)[C@H]1CC[C@H](C(=O)O)CC1 [Compound 3, (1R,4r)-4-((R)-1-(((R)-4-(((R)-2-(azepan-1-yl)-1-(1-methyl-1H-pyrazol-4-yl)ethyl)amino)-6-(3-fluorophenyl)-5,6,7,8-tetrahydroquinazolin-2-yl)amino)propyl)cyclohexane-1-carboxylic acid]",0.066,105.403 % of ANP,0.045,107.571 % of ANP,
"C[C@H]1CCCN(C[C@H](Nc2nc(N(C)[C@H](C3CC3)[C@H]3CC[C@H](C(=O)O)CC3)nc3c2C[C@H](c2ccccc2)CC3)c2cnn(C)c2)C1 [Compound 120, (1R,4r)-4-((R)-cyclopropyl(methyl((R)-4-(((R)-1-(1-methyl-1H-pyrazol-4-yl)-2-((S)-3-methylpiperidin-1-yl)ethyl)amino)-6-phenyl-5,6,7,8-tetrahydroquinazolin-2-yl)amino)methyl)cyclohexane-1-carboxylic acid]",0.553,96.905 % of ANP,0.427,102.755 % of ANP,
"CC[C@@H](N(C)c1nc2c(c(N[C@@H](CN3CCC[C@H](CF)C3)c3cnn(C)c3)n1)C[C@](C)(c1ccccc1)CC2)C12CC(C(=O)O)(C1)C2 [Compound 12, 3-((R)-1-(((R)-4-(((R)-2-((S)-3-(fluoromethyl)piperidin-1-yl)-1-(1-methyl-1H-pyrazol-4-yl)ethyl)amino)-6-methyl-6-phenyl-5,6,7,8-tetrahydroquinazolin-2-yl)(methyl)amino)propyl)bicyclo[1.1.1]pentane-1-carboxylic acid]",0.094,96.068 % of ANP,0.073,95.099 % of ANP,
"CC[C@@H](N(C)c1nc2c(c(N[C@@H](CN3C4CCCC3CC4)c3scnc3C)n1)C[C@H](c1cccc(F)c1)CC2)C12CC(C(=O)O)(C1)C2 [Compound 113, 3-((1R)-1-(((6R)-4-(((1S)-2-(8-azabicyclo[3.2.1]octan-8-yl)-1-(4-methylthiazol-5-yl)ethyl)amino)-6-(3-fluorophenyl)-5,6,7,8-tetrahydroquinazolin-2-yl)(methyl)amino)propyl)bicyclo[1.1.1]pentane-1-carboxylic acid]",0.438,98.462 % of ANP,,99.894 % of ANP,0.46
"CC[C@@H](N(C)c1nc2c(c(N[C@@H](CN3C4CCCC3CCC4)c3cnn(C)c3C)n1)C[C@H](c1cccc(F)c1)CC2)C12CC(C(=O)O)(C1)C2 [Compound 89, 3-((R)-1-(((R)-4-(((R)-2-((1S,5S)-9-azabicyclo[3.3.1]nonan-9-yl)-1-(1,5-dimethyl-1H-pyrazol-4-yl)ethyl)amino)-6-(3-fluorophenyl)-5,6,7,8-tetrahydroquinazolin-2-yl)(methyl)amino)propyl)bicyclo[1.1.1]pentane-1-carboxylic acid]",0.309,98.816 % of ANP,,103.084 % of ANP,0.268
"CC[C@@H](Nc1nc2c(c(N[C@@H](CN3CCCC4(CCOC4)C3)c3cnn(CC)c3)n1)C[C@H](c1ccccc1)CC2)[C@H]1CC[C@H](C(=O)O)CC1 (stereo partly drawn) [Compound 109, (1R,4r)-4-((1R)-1-(((6R)-4-(((1R)-1-(1-ethyl-1H-pyrazol-4-yl)-2-(2-oxa-7-azaspiro[4.5]decan-7-yl)ethyl)amino)-6-phenyl-5,6,7,8-tetrahydroquinazolin-2-yl)amino)propyl)cyclohexane-1-carboxylic acid]",0.412,91.101 % of ANP,0.19,115.338 % of ANP,
"CC[C@@H](N(C)c1nc2c(c(N[C@@H](CN3C4CCCC3CCC4)c3cnn(C)c3)n1)C[C@H](c1ccc(F)cc1)CC2)C12CC(C(=O)O)(C1)C2 [Compound 11, 3-((R)-1-(((R)-4-(((R)-2-((1S,5S)-9-azabicyclo[3.3.1]nonan-9-yl)-1-(1-methyl-1H-pyrazol-4-yl)ethyl)amino)-6-(4-fluorophenyl)-5,6,7,8-tetrahydroquinazolin-2-yl)(methyl)amino)propyl)bicyclo[1.1.1]pentane-1-carboxylic acid]",0.094,103.738 % of ANP,,113.853 % of ANP,0.07
"CC[C@@H](Nc1nc2c(c(N[C@@H](CN3CCC[C@H](C)C3)c3cnn(C)c3)n1)C[C@](C)(c1cccc(F)c1)CC2)[C@H]1CC[C@H](C(=O)O)CC1 [Compound 2, (1R,4r)-4-((R)-1-(((R)-6-(3-fluorophenyl)-6-methyl-4-(((R)-1-(1-methyl-1H-pyrazol-4-yl)-2-((S)-3-methylpiperidin-1-yl)ethyl)amino)-5,6,7,8-tetrahydroquinazolin-2-yl)amino)propyl)cyclohexane-1-carboxylic acid]",0.042,96.935 % of ANP,0.044,103.371 % of ANP,
"CC[C@H]([C@H]1CC[C@H](C(=O)O)CC1)N(C)c1nc2c(c(N[C@@H](CN3CCCCC3)c3cnn(C)c3)n1)C[C@](C)(c1ccccc1)CC2 [Compound 66, (1R,4r)-4-((R)-1-(methyl((R)-6-methyl-4-(((R)-1-(1-methyl-1H-pyrazol-4-yl)-2-(piperidin-1-yl)ethyl)amino)-6-phenyl-5,6,7,8-tetrahydroquinazolin-2-yl)amino)propyl)cyclohexane-1-carboxylic acid]",0.219,96.868 % of ANP,0.123,98.088 % of ANP,
"CC[C@H]([C@H]1CC[C@H](C(=O)O)CC1)N(C)c1nc2c(c(N[C@@H](CN3C4CCCC3CCC4)c3cnn(CC)c3)n1)C[C@H](c1ccccc1)CC2 [Compound 92, (1R,4r)-4-((R)-1-(((R)-4-(((R)-2-((1S,5S)-9-azabicyclo[3.3.1]nonan-9-yl)-1-(1-ethyl-1H-pyrazol-4-yl)ethyl)amino)-6-phenyl-5,6,7,8-tetrahydroquinazolin-2-yl)(methyl)amino)propyl)cyclohexane-1-carboxylic acid]",0.317,99.678 % of ANP,,99.824 % of ANP,0.249
"CC[C@@H](N(C)c1nc2c(c(N[C@@H](CN3C4CCCC3CC4)c3cnn(C)c3)n1)C[C@](C)(c1ccccc1)CC2)C12CC(C(=O)O)(C1)C2 [Compound 28, 3-((1R)-1-(((6R)-4-(((1R)-2-(8-azabicyclo[3.2.1]octan-8-yl)-1-(1-methyl-1H-pyrazol-4-yl)ethyl)amino)-6-methyl-6-phenyl-5,6,7,8-tetrahydroquinazolin-2-yl)(methyl)amino)propyl)bicyclo[1.1.1]pentane-1-carboxylic acid]",0.139,103.247 % of ANP,,105.314 % of ANP,0.134

# From patent US12129246B1, “Hydroquinazoline derivatives for the treatment of a disease or disorder” (Novartis AG, priority 2023, dated 2024)
